Two compounds from PMC10572522, “A Designed Analog of an Antimicrobial Peptide, Crabrolin, Exhibits Enhanced Anti-Proliferative and In Vivo Antimicrobial Activity” (International Journal of Molecular Sciences, 2023) can be followed below.

pIC50: −log10 of the molar value. Residues, ends and D or L forms follow the SMILES beside them.

Data set [1] relates to human keratinocyte cell line HaCaT. Nature of the data set: LDH cell cytotoxicity assay. The conditions noted are these: for LDH leakage: 25 μM, 24 h. Format: cell-based. The protocol:
(§1) A Pierce LDH cytotoxicity assay kit (Thermo Scientific, Waltham, MA, USA) was applied for the LDH assay. An immortalized human microvascular endothelial cell line, HMEC-1, and a human keratinocyte cell line, HaCaT, were used in the LDH assay. A total of 8000 cells were placed in each well of the 96-well tissue culture plate with 100 µL of medium and incubated at 37 °C with 5% CO2 overnight. The cells were cultured with different drug concentrations ranging from 100 µM to 1µM for 24 h. […] of lysis buffer was prepared as the maximum LDH activity control. After incubating at 37 °C with 5% CO2 for 45 min, 50 µL of the sample was transferred into each well medium in a 96-well flat-bottom plate. Then, 50 µL of the reaction mixture was transferred to the wells and mixed. The 96-well plate was cultured for 30 min and protected from light at room temperature. Then, 50 µL of stop solution (supplied in the kit) was added to each well and mixed. The absorbance was detected at 490 nm and 680 nm.
On the technique in general: LDH in the medium is a marker of cell lysis.

For data set [2], the system named is immortalized human microvascular endothelial cell line HMEC-1. Nature of the data set: LDH cell cytotoxicity assay. Format: cell-based. The method, then:
as §1

The test system of data set [3] is K. pneumoniae (ATCC 43816) biofilm. The class given is cell-based, Klebsiella pneumoniae. The following applies: for MBIC: biofilm inhibitory rate more than 90%; for MBEC: eradication rate greater than 99.9%. The method, then: (§2) To measure the antibiofilm activity of crabrolin and its derivatives, four drug-resistant biofilm-forming strains, MRSA (NCTC 12493), K. pneumoniae (ATCC 43816), E. faecium (NTCC-12697), and P. aeruginosa (ATCC 9027), were used in this assay. Tryptic soy broth (TSB) (for the Gram-positive bacteria) and Luria–Bertani broth (LB) (for the Gram-negative bacteria) were used to culture the bacteria.
(§3) The mass of the biofilm in this assay was detected by the crystal violet staining method. First, 100 μL of 5 × 10^5 CFU/mL bacteria was incubated with 1 μL of different peptide solutions (ranging from 51200 μM to 100 μM) for 24 h at 37 °C with 200 rpm shaking. After the biofilm formation, 100 μL of PBS was used to rinse the biofilm twice. Next, 100 µL of methanol was added to fix the biofilm, and the biofilm was then dried. Thereafter, 100 μL of 0.1% crystal violet was added and left to stain for 15 min, and then the excess crystal violet was further rinsed by PBS. After the plate had air-dried, 30% glacial acetic acid was added to each well of the plate, and the plate was shaken for 15 min before the optical density (OD) value was measured at 595 nm using a Synergy HT plate reader. The MBIC value refers to the minimum concentration at which the biofilm inhibitory rate was more than 90%.
(§4) Different from measuring the MBIC value, to determine the MBEC value, 100 μL of the bacteria was first added to 96-well plates. After the biofilm was formed, the biofilm was rinsed with PBS twice to remove the planktonic cells, and then different concentrations of the drugs were added to the biofilm (the same as the MBIC assay). The mixture was incubated at 37 °C with shaking at 200 rpm. After 24 h of incubation, the mass of the biofilm was measured in the same way as the MBIC value, and the minimum concentration at which the eradication rate was greater than 99.9% was considered to be the MBEC value.

Data set [4] deals with human prostate carcinoma cell line PC-3. Nature of the data set: Anti-proliferative assay (MTT). Format: cell-based. The conditions noted are these: PC3, MTT, 24 h. The protocol:
(§5) The human non-small-cell lung cancer line, H838, the human prostate carcinoma cell line, PC-3, the human glioblastoma astrocytoma, U251MG, the human breast cancer cell line, MCF-7, the human colorectal carcinoma cell line, HCT116, and the human keratinocyte cell line, HaCaT, were used to detect the anti-proliferative effects of the crabrolin and its derivatives in vitro. A total of 8000 cells were seeded in each well of a 96-well plate. After the cells had adhered to the wall, the cells were starved for 4 h. After the starvation, the cells were incubated with different concentrations of the drugs, ranging from 100 µM to 1 nM, for 24 h, with 0.1% Triton X-100 used as a positive control. Next, 10 µL of MTT (3-(4,5-dimethylthiazol-2-yl)-2,5-diphenyltetrazolium bromide) solution (5 mg/mL) was added to each well of the 96-well plate. After 2 h of incubation, 100 μL of DMSO-superseded medium was added to each well to dissolve the formazan crystals. Finally, the absorbance was detected using a Synergy HT plate reader at 570 nm.

In data set [5] the test system is human keratinocyte cell line HaCaT. Nature of the data set: Anti-proliferative assay (MTT). Format: cell-based. The following applies: HaCaT (normal keratinocytes), 24 h. The protocol: as §5
Data set [6] concerns human non-small-cell lung cancer line H838. Briefly: Anti-proliferative assay (MTT). The class given is cell-based. The following applies: 24 h. The method, then: as §5
In data set [7] the test system is human colorectal carcinoma cell line HCT-116. Nature of the data set: Anti-proliferative assay (MTT). Format: cell-based. The conditions noted are these: HCT-116, MTT, 24 h. The protocol: as §5
Data set [8] concerns human glioblastoma astrocytoma U251MG. Nature of the data set: Anti-proliferative assay (MTT). The class given is cell-based. The following applies: 24 h. The method, then: as §5
Data set [9] concerns human breast cancer cell line MCF-7. Nature of the data set: Anti-proliferative assay (MTT). The class given is cell-based. The following applies: MCF-7, MTT, 24 h. The method, then:
as §5

The subject of data set [10] is E. faecium (NTCC12697) biofilm. Format: cell-based, Enterococcus faecium. The following applies: for MBIC: biofilm inhibitory rate more than 90%; for MBEC: eradication rate greater than 99.9%. The method, then: as §2, §3, §4
The subject of data set [11] is MRSA (NCTC 12493) biofilm. The class given is cell-based, methicillin-resistant Staphylococcus aureus. The following applies: for MBIC: biofilm inhibitory rate more than 90%; for MBEC: eradication rate greater than 99.9%. The method, then: as §2, §3, §4
The subject of the next data set is E. coli (ATCC 8739). Briefly: Antimicrobial susceptibility assay (MIC/MBC). The class given is cell-based, Escherichia coli. The following applies: for MIC: MHB, 37 °C, 20 h. The protocol:
Six bacteria were tested in this experiment to detect the antimicrobial effects of crabrolin and its derivatives, including S. aureus (NCTC 10788), MRSA (NCTC 12493), E. coli (ATCC 8739), K. pneumoniae (ATCC 43816), E. faecium (NTCC-12697), and P. aeruginosa (ATCC 9027). The tested bacteria were cultured in Mueller Hinton broth medium (MHB) with norfloxacin (20 mg/L) as a positive control. All bacteria were incubated at 37 °C overnight and diluted to 5 × 10^5 CFU/mL before treating with the peptides. Stock solutions of 51,200 µM peptides were prepared in phosphate-buffered saline (PBS) and further diluted by a factor of two to 100 µM. Next, 1 µL of each peptide solution was mixed with 99 µL of bacterial subculture in a 96-well plate, and the plate was incubated at 37 °C for 20 h. After culturing, the absorbance of each well in the 96-well plate was analyzed at 550 nm using a Synergy HT plate reader (BioliseBioTek, Winooski, VT, USA). […] Starting with the MIC value, 10 µL of the solution from each well was dripped onto Mueller Hinton agar (MHA) plates. The plates were cultured at 37 °C for 20 h. After culturing, the lowest concentration with no colony growth was regarded as the MBC.

For orientation: pIC50 means −log10 of the IC50, conventionally taken in molar units. One may read the MBC as the lowest tested concentration that kills the bacteria rather than only halting them. As usually defined, the MIC is the smallest concentration in the dilution series that meets the test's criterion for growth inhibition.

As to `CC[C@H](C)[C@H](NC(=O)[C@H](CC(C)C)NC(=O)[C@@H]1CCCN1C(=O)[C@H](CC(C)C)NC(=O)[C@@H](N)Cc1ccccc1)C(=O)N[C@@H](CC(C)C)C(=O)N[C@@H](CCCNC(=N)N)C(=O)N[C@@H](CCCCN)C(=O)N[C@H](C(=O)N[C@H](C(=O)N[C@H](C(=O)N[C@@H](C)C(=O)N[C@@H](CC(C)C)C(N)=O)[C@@H](C)O)C(C)C)[C@@H](C)CC` [Crabrolin, FLPLILRKIVTAL-NH2] (H-FLPLILRKIVTAL-NH2), the LDH leakage in data set [1] is recorded as roughly 20%. Further, the “Cytotoxicity (LDH release)” value was “showed cytotoxicity” in [1] (100 μM) and “showed cytotoxicity” in data set [2] (HMEC-1, 100 μM). Moreover, the MBIC is >512/>512 µM in data set [3], 32 µM in [10] and 4 µM in [11]. Besides, the MBEC in data set [3] was >512/>512 µM; in data set [10], greater than 512 µM; in [11] it was 128 µM. For the same compound, the pIC50 in data set [4] is 4.49; in data set [5], 4.51; in data set [6], 4.56; in [7] it was 5.07; in data set [8], 4.70; in [9], 4.58. Moreover, the MBC in the data set on E. coli (ATCC 8739) amounted to 128 µM. Also, the MIC in the data set on E. coli (ATCC 8739) turned out to be 32 µM.
Consider `CC[C@H](C)[C@H](NC(=O)[C@H](CCCNC(=N)N)NC(=O)[C@@H]1CCCN1C(=O)[C@H](CC(C)C)NC(=O)[C@@H](N)Cc1ccccc1)C(=O)N[C@@H](CC(C)C)C(=O)N[C@@H](CCCNC(=N)N)C(=O)N[C@@H](CCCCN)C(=O)N[C@H](C(=O)N[C@H](C(=O)N[C@@H](CCCNC(=N)N)C(=O)N[C@@H](C)C(=O)N[C@@H](CC(C)C)C(N)=O)C(C)C)[C@@H](C)CC` [Crabrolin-TR, FLPRILRKIVRAL-NH2] (H-FLPRILRKIVRAL-NH2), for which the LDH leakage in data set [1] is roughly 20%. Besides, the “Cytotoxicity (LDH release)” value in data set [2] (HMEC-1, 25 μM) is reported as “cytotoxic”. In addition, the MBIC in [3] came out at 8 µM; in data set [10], 16 µM; in data set [11], 2 µM. Also, the MBEC in [3] is 128 µM; in [10] it was greater than 512 µM; in data set [11], 64 µM. For the same compound, the pIC50 in data set [4] is 5.40; in data set [4] (listed as crabrolin-TR) it was greater than 5.00; in [5] it was 4.68; in [6], 5.33; in [6] (listed as crabrolin-TR), greater than 5.00; in data set [7], 5.55. For the same compound, the pIC50 in [8] is 4.91; in data set [8] (listed as crabrolin-TR) it was less than 5.00; in data set [9] it was 5.46; in [9] (listed as crabrolin-TR), greater than 5.00. Besides, in the data set with E. coli (ATCC 8739), the MBC is on record as 4 µM. For the same compound, in the data set on E. coli (ATCC 8739), the minimal inhibitory concentration (MIC) amounted to 2 µM.
